Results as given in patent US20240002388A1, “PYRIMIDINONE COMPOUNDS AND USES THEREOF” (HUTCHISON MEDIPHARMA LIMITED, priority 2020, published 2024).

System: IL-1β production in human whole blood
Assay: TNF-α, Z-VAD-FMK and SM-164 induced IL-1β production in human whole blood
Assay type: cell-based
Details: Z-VAD-FMK and SM-164 stimulation, 6 hours, IL-1β ELISA
Source text: • Human blood samples were collected by venipuncture from healthy volunteers, with signed consent from each volunteer before blood collection; • RPMI 1640 medium: L-Glutamine, 1.5 g/L NaHCO3, 2.383 g/L HEPES solution, 0.11 g/L sodium pyruvate and 4.5 g/L Glucose; Gibco, catalog: A10491-01; • Dimethyl sulfoxide (DMSO): Sigma, catalog: D2650; • Recombinant Human TNF-alpha Protein (hTNF-α): R&D system, catalog: 210-TA-100; • Pan-Caspase inhibitor (Z-VAD-FMK): Selleckchem, catalog: S7023; • Smac Mimetic-164 (SM-164): APEXBIO, catalog: A8815; • Human IL-1 beta/IL-1F2 Quantikine ELISA Kit: R&D systems, catalog: SLB50; • Envision Multimode Microplate Reader: PerkinElmer; • 96-well clear flat bottom TC-treated culture microplate: Falcon, catalog: 353072; • 96-well Microplate (U bottom): Corning, catalog: 3799. 2. Assay Protocol Human whole blood was anti-coagulated with heparin and used in human whole blood assay immediately. Fresh heparinized human whole blood was diluted with an equal volume of RPMI 1640 medium, aliquoted the diluted blood into 96-well plate, 90 μL each well.
Compound preparation: dilute the compound stock using DMSO and perform 3-fold serial dilution to 8-points. Then transfer the diluted compounds to RPMI 1640 medium and mix.
Compound treatment and stimulation: transfer 5 μL of the diluted compound to appropriate wells of the plate. The final concentration of the compound was 1.0, 0.333, 0.111, 0.037, 0.012, 0.004, 0.0014 and 0.0005 μM, and each well contained 0.3% DMSO. For positive and negative control wells, add 5 μL of RPMI 1640 medium with 3% DMSO. And incubate the plate at 5% CO2, 37° C. for 1 hour.
Then 5 μL of the mixture of stimuli (TNF-α, Z-VAD-FMK and SM-164) was added with the final concentration of […] except negative control wells. The negative control wells were added same volume of RPMI 1640 medium.
After incubation 6 hours in a 37° C./5% CO2 incubator, each well was added with 100 μL of PBS, and centrifuged at 4000 rmp for 10 minutes. The 110 μL of supernatant per well was collected, and stored at −80° C. for ELISA.
Prepared 100 μL of IL-1β standards (in duplicate) in designated wells. ELISA was operated according to manufacturer's instruction. In the end, measured the ELISA plate absorbance at 450 nm/570 nm using Envision.
Inhibition rates of compounds on TNF-α, Z-VAD-FMK and SM-164 induced IL-1β Production in human whole blood were calculated as follows: • IL-1β level was calculated with IL-1β standard curve (standard curve fitting equation is four parameters logistic model)
[formula] • IL-1β levelstimulated: the concentration of IL-1β in the positive control wells which added TNF-α, Z-VAD-FMK, SM-164 and no compound; • IL-1β levelnon-stimulated: the concentration of IL-1β in the negative control wells without the treatment of TNF-α, Z-VAD-FMK, SM-164 and compound; • IL-1β levelcompound: the concentration of IL-1β in the wells with the treatment of TNF-α, Z-VAD-FMK, SM-164 and compound. • The IC50 value of compound is determined with XLFit 5 software (ID Business Solutions Limited).

**Q.** How did the IC50 turn out when `CC(C)n1ncc2cnc(C(=O)NC3(c4ccc(-c5cncn([C@@H](C)C6CC6)c5=O)cc4)CC3)nc21` [Compound 85, (S)—N-(1-(4-(1-(1-cyclopropylethyl)-6-oxo-1,6-dihydropyrimidin-5-yl)phenyl)cyclopropyl)-1-i-propyl-1H-pyrazolo[3,4-d]pyrimidine-6-carboxamide] was run?
**A.** 5 nM

**Q.** How did the IC50 turn out when `CC(C)n1cncc(-c2ccc(C3(NC(=O)c4ncc5cnn(CC6CC6)c5n4)CC3)cc2F)c1=O` [Compound 73] was run?
**A.** 21 nM

**Q.** `CC(C)n1ncc2cnc(C(=O)NC3(c4ccc(-c5cncn([C@@H](C)C(F)(F)F)c5=O)cc4F)CC3)nc21` (stereo in doubt) [Compound 47] was tested. Which IC50 did it give?
**A.** 9 nM

**Q.** With `CC(C)n1cncc(-c2ccc(C3(NC(=O)c4ncc5cnn([C@H](C)C6CC6)c5n4)CC3)cc2)c1=O` [Compound 89, (R)-1-(1-cyclopropylethyl)-N-(1-(4-(1-i-propyl-6-oxo-1,6-dihydropyrimidin-5-yl)phenyl)cyclopropyl)-1H-pyrazolo[3,4-d]pyrimidine-6-carboxamide] as the compound, how does the IC50 read?
**A.** 18 nM

**Q.** `C[C@@H](n1cncc(-c2ccc(C3(NC(=O)c4ncc5cnn(CC6CC6)c5n4)CC3)cc2)c1=O)C(F)(F)F` [Compound 70] was tested. Which IC50 did it give?
**A.** 8 nM

**Q.** With `CC(C)n1cncc(-c2ccc(C3(NC(=O)c4ncc5cnn(CC6CC6)c5n4)CC3)c(F)c2)c1=O` [Compound 72] as the compound, how does the IC50 read?
**A.** 39 nM

**Q.** How did the IC50 turn out when `CC(C)n1cncc(-c2ccc(C3(NC(=O)c4ncc5cnn(CC6CC6)c5n4)CC3)cc2)c1=O` [Compound 61] was run?
**A.** 11 nM

**Q.** `C[C@H](n1cncc(-c2ccc(C3(NC(=O)c4ncc5cnn(CC6CC6)c5n4)CC3)cc2)c1=O)C(F)(F)F` [Compound 68] was tested. Which IC50 did it give?
**A.** 43 nM

**Q.** With `CC(C)n1ncc2cnc(C(=O)NC3(c4ccc(-c5cncn(CC6CC6)c5=O)cc4)CC3)nc21` [Compound 36] as the compound, how does the IC50 read?
**A.** 4 nM

**Q.** For `CC(C)n1cncc(-c2ccc(C3(NC(=O)c4ncc5cnn(C(C)C6CC6)c5n4)CC3)cc2)c1=O` (racemic) [Compound 59, 1-(1-cyclopropylethyl)-N-(1-(4-(1-i-propyl-6-oxo-1,6-dihydropyrimidin-5-yl)phenyl)cyclopropyl)-1H-pyrazolo[3,4-d]pyrimidine-6-carboxamide], which IC50 is on record?
**A.** 4 nM

**Q.** With `CC(C)n1cncc(-c2ccc(C3(NC(=O)c4ncc5cnn([C@@H](C)C6CC6)c5n4)CC3)cc2)c1=O` [Compound 90, (S)-1-(1-cyclopropylethyl)-N-(1-(4-(1-i-propyl-6-oxo-1,6-dihydropyrimidin-5-yl)phenyl)cyclopropyl)-1H-pyrazolo[3,4-d]pyrimidine-6-carboxamide] as the compound, how does the IC50 read?
**A.** 7 nM

**Q.** How did the IC50 turn out when `CC(C)n1cncc(-c2ccc(C3(NC(=O)c4ncc5cnn(C(C)C)c5n4)CC3)cc2)c1=O` [Compound 29, 1-isopropyl-N-(1-(4-(1-isopropyl-6-oxo-1,6-dihydropyrimidin-5-yl)phenyl)cyclopropyl)-1H-pyrazolo[3,4-d]pyrimidine-6-carboxamide] was run?
**A.** 4 nM

**Q.** For `CC(C)n1cncc(-c2ccc(C3(NC(=O)c4ncc5cnn(C6COC6)c5n4)CC3)cc2)c1=O` [Compound 60], which IC50 is on record?
**A.** 10 nM

**Q.** How did the IC50 turn out when `C[C@@H](n1cncc(-c2ccc(C3(NC(=O)c4ncc5cnn(CC6CC6)c5n4)CC3)c(F)c2)c1=O)C(F)(F)F` [Compound 76] was run?
**A.** 9 nM

**Q.** For `C[C@H](n1cncc(-c2ccc(C3(NC(=O)c4ncc5cnn(CC6CC6)c5n4)CC3)c(F)c2)c1=O)C(F)(F)F` [Compound 71], which IC50 is on record?
**A.** 38 nM

**Q.** `CC(C)n1ncc2cnc(C(=O)NC3(c4ccc(-c5cncn([C@H](C)C(F)(F)F)c5=O)cc4F)CC3)nc21` (stereo in doubt) [Compound 46] was tested. Which IC50 did it give?
**A.** 6 nM

**Q.** Which IC50 does the source give for `CC(C)n1ncc2cnc(C(=O)NC3(c4ccc(-c5cncn(CC6(C)CC6)c5=O)cc4)CC3)nc21` [Compound 86] here?
**A.** 13 nM

**Q.** With `CC(C)n1ncc2cnc(C(=O)NC3(c4ccc(-c5cncn(CC6CC6)c5=O)cc4F)CC3)nc21` [Compound 74] as the compound, how does the IC50 read?
**A.** 13 nM

**Q.** With `CC(C)n1ncc2cnc(C(=O)NC3(c4ccc(-c5cncn(CC6CC6)c5=O)c(F)c4)CC3)nc21` [Compound 75] as the compound, how does the IC50 read?
**A.** 11 nM

**Q.** `CC(C)n1ncc2cnc(C(=O)NC3(c4ccc(-c5cncn([C@H](C)C6CC6)c5=O)cc4)CC3)nc21` [Compound 84, (R)—N-(1-(4-(1-(1-cyclopropylethyl)-6-oxo-1,6-dihydropyrimidin-5-yl)phenyl)cyclopropyl)-1-i-propyl-1H-pyrazolo[3,4-d]pyrimidine-6-carboxamide] was tested. Which IC50 did it give?
**A.** 5 nM

**Q.** `O=C(NC1(c2ccc(-c3cncn(CC4CC4)c3=O)cc2)CC1)c1ncc2cnn(CC3CC3)c2n1` [Compound 64] was tested. Which IC50 did it give?
**A.** 12 nM

**Q.** With `CC(C)n1ncc2cnc(C(=O)NC3(c4ccc(-c5cncn(C6COC6)c5=O)cc4)CC3)nc21` [Compound 41] as the compound, how does the IC50 read?
**A.** 18 nM
